According to ChEMBL document CHEMBL4680187, “Optimization of EphA2 antagonists based on a lithocholic acid core led to the identification of UniPR505, a new 3α-carbamoyloxy derivative with antiangiogenetic properties” (Eur J Med Chem, 2020):

Assays:
Ephrin type-A receptor 2 = Ephrin type-A receptor 2 (Mus musculus, UniProt Q03145); assay: Displacement of biotinylated ephrin-A1-Fc from recombinant mouse c-terminal His6-tagged EphA2 Fc (Ala22 to Ala535 residues) preincubated for 1 hr followed by ephrin-A1-FC addition and measured after 4 hrs by ELISA
Chain of Ephrin type-A receptor 2 (Q03145 whole entry): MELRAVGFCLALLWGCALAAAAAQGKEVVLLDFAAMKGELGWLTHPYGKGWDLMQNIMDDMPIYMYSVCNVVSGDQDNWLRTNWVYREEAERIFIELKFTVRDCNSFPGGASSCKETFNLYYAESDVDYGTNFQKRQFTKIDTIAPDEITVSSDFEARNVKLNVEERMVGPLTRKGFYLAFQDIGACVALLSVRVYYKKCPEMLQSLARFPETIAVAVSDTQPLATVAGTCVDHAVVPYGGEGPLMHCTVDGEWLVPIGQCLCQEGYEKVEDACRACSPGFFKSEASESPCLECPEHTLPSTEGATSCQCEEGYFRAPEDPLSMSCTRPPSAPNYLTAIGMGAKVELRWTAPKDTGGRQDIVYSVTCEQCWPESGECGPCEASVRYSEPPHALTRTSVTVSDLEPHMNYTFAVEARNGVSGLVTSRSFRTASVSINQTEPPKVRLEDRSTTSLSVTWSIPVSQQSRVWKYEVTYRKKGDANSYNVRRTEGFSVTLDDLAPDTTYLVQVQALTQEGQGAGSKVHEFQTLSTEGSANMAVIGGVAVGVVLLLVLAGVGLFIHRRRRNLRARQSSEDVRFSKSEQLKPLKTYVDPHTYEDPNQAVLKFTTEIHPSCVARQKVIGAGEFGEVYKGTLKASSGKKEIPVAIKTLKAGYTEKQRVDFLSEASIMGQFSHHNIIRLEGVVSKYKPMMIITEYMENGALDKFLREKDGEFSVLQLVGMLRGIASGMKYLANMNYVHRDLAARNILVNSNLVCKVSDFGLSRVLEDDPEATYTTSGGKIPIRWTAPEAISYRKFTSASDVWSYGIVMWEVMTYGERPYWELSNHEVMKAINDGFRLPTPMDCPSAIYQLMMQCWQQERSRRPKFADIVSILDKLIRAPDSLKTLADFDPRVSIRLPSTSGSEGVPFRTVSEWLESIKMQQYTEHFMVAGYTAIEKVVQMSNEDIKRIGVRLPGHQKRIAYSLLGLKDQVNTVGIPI

Ephrin type-B receptor 1 = target: T1, Ephrin type-B receptor 1 (Rattus norvegicus, UniProt P09759); assay: Displacement of biotinylated ephrin-B1-Fc from rat EphB1 Fc preincubated for 1 hr followed by ephrin-B1-FC addition and measured after 4 hrs by ELISA
T1 sequence (P09759 whole entry): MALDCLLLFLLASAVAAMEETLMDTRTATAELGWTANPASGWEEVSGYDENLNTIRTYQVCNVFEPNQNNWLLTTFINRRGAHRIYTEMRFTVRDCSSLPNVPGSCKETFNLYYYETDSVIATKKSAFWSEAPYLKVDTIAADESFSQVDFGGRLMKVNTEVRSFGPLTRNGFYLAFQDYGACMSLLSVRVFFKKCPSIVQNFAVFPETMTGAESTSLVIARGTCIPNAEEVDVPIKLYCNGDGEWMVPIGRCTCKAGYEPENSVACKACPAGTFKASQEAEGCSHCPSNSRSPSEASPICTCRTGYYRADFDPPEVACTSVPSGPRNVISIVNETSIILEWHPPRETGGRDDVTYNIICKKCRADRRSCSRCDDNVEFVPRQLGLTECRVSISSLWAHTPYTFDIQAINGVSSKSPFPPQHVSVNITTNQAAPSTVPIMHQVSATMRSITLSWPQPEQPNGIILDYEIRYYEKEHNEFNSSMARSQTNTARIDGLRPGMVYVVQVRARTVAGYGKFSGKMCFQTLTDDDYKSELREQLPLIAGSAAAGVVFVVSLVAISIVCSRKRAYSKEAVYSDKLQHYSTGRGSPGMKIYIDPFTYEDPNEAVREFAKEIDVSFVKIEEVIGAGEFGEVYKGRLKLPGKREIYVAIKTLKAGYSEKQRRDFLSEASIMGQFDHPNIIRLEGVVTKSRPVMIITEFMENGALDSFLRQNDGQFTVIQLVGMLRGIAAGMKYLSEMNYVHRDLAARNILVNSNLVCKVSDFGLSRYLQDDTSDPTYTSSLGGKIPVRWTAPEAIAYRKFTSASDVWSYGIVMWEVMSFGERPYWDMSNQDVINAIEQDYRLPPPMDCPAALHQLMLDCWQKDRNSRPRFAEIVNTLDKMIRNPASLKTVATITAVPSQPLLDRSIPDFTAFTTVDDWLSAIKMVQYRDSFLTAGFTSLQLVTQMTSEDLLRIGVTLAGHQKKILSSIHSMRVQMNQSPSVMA

Ephrin type-B receptor 6 = target: T2, Ephrin type-B receptor 6 (Mus musculus, UniProt O08644); assay: Displacement of biotinylated ephrin-B1-Fc from mouse EphB6 Fc preincubated for 1 hr followed by ephrin-B1-FC addition and measured after 4 hrs by ELISA
T2 sequence (O08644 whole entry): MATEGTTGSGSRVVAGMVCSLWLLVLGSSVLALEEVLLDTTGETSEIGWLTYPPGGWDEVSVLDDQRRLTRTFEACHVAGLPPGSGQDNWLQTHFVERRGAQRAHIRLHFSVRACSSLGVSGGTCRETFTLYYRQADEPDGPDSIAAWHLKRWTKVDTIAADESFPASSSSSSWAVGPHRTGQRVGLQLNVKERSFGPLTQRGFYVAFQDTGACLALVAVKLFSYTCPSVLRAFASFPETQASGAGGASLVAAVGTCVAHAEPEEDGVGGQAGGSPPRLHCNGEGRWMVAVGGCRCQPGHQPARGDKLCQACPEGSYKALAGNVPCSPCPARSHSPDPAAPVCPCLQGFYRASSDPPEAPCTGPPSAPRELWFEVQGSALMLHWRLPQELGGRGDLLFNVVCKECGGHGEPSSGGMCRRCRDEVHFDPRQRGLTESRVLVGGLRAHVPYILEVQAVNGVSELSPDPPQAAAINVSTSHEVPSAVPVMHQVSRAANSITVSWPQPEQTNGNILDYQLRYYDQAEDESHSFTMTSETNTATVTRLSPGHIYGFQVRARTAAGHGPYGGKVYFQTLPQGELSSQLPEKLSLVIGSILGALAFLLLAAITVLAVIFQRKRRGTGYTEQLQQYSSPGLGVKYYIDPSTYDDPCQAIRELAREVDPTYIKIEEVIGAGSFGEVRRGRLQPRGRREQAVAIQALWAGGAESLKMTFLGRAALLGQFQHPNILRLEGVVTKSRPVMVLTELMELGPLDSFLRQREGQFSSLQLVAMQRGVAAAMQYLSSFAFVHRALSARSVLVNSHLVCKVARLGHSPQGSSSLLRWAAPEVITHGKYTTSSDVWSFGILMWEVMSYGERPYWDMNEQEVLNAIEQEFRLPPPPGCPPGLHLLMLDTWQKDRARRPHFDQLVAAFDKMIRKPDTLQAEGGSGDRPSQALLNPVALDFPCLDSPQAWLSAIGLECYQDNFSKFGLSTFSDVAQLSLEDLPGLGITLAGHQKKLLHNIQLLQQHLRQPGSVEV

IC50 (Ephrin type-A receptor 2): 0.95 µM | IC50 (Ephrin type-B receptor 1): > 30 µM | IC50 (Ephrin type-B receptor 6): > 30 µM
SMILES: CCNC(=O)O[C@@H]1CC[C@@]2(C)[C@H](CC[C@@H]3[C@@H]2CC[C@]2(C)[C@@H]([C@H](C)CCC(=O)N[C@H](CC(=O)O)Cc4c[nH]c5ccccc45)CC[C@@H]32)C1
